Laboratory results reported in patent US20260345619A1 (Principia Biopharma Inc., priority 2023, published 2026).

Assay: Loss of asthma control (LOAC) events, 12-week ICS/LABA withdrawal study
Assay type: in vivo, human
Conditions: for RD vs. Placebo / LOAC, number / OR vs. placebo: 400 mg BID
From the text: The general construct of this 12-week Loss of Asthma Control (LOAC) study consisted of a 4-week standardized ICS/LABA background therapy stabilization phase, a 4or 5-week background therapy withdrawal phase and a 3- or 4-week no background therapy phase, followed by a 4-week post IMP treatment safety follow-up period at the beginning of which, pre-screening asthma controller medications are restarted. Participants had access to short-acting β-agonist (SABA) reliever medication at all times during the protocol.
The primary endpoint was the proportion of patients with LOAC. The key secondary endpoint for the study was change in pre-bronchodilator FEV1 from baseline at EOT.
The primary endpoint was proportion of participants with LOAC during the 12-week treatment period.
Note that if the number of participants in some regions was too low, these regions may have been pooled with other regions. This strategy also applied to all the rest of the analyses where region was one of the covariates.
To assess the consistency in treatment effects across different subgroup levels, subgroup analyses were to be performed for the primary efficacy endpoint with respect to age group, gender, region, and other factors.
Secondary endpoints included pre-bronchodilator FEV1 change from baseline at EOT, ACQ-5 score change from baseline, and AQLQ score change from baseline. Other secondary and exploratory endpoints are described in Table 2.

[1] = all others than low EOS and low FeNO
[2] = background ICS/LABA dose Medium
[3] = baseline IgA <Median (2600) IU/mL
[4] = baseline IgA ≥Median (2600) IU/mL
[5] = baseline IgE <Median (210.8) IU/mL
[6] = baseline IgE ≥Median (210.8) IU/mL
[7] = baseline percent predicted FEV1 <Median (68)
[8] = baseline percent predicted FEV1 ≥ Median (68)
[9] = baseline pre-BD FEV1 <Median (2.022) L
[10] = baseline pre-BD FEV1 ≥Median (2.022) L
[11] = blood eosinophil level 1 <0.15 (10^9/L)
[12] = blood eosinophil level 1 ≥0.15 (10^9/L)
[13] = blood eosinophil level 2 <0.3 (10^9/L)
[14] = blood eosinophil level 2 ≥0.3 (10^9/L)
[15] = 400 mg TID cohort, Eastern Europe, n = 43
[16] = 400 mg TID cohort, Latin America, n = 19

With CC(C)(C=C(C#N)C(=O)N1CCC[C@@H](n2nc(-c3ccc(Oc4ccccc4)cc3F)c3c(N)ncnc32)C1)N1CCN(C2COC2)CC1 (mixture of isomers) [rilzabrutinib, (R)-2-[3-[4-amino-3-(2-fluoro-4-phenoxy-phenyl)pyrazolo[3,4-d]pyrimidin-1-yl]piperidine-1-carbonyl]-4-methyl-4-[4-(oxetan-3-yl)piperazin-1-yl]pent-2-enenitrile] the “RD vs. Placebo” value (age at onset ≥18-<40 years) was −0.314, the “LOAC, number” value (age at onset ≥18 years) was 7 and the OR vs. placebo (age at onset ≥18 years) was 0.323. The “RD vs. Placebo” value (age at onset ≥18 years) was −0.258, the “LOAC, number” value (age at onset ≥40 years) was 3 and the OR vs. placebo (age at onset ≥40 years) was 3.000. The “RD vs. Placebo” value (age at onset ≥40 years) was 0.250, the “LOAC, number” value [1] was 12 and the OR vs. placebo [1] was 0.808. The “RD vs. Placebo” value [1] was −0.053, the “LOAC, number” value (atopic medical conditions: No) was 4 and the OR vs. placebo (atopic medical conditions: No) was 0.380. The “RD vs. Placebo” value (atopic medical conditions: No) was −0.204, the “LOAC, number” value (atopic medical conditions: Yes) was 8 and the OR vs. placebo (atopic medical conditions: Yes) was 0.681. For the same compound, the “RD vs. Placebo” value (atopic medical conditions: Yes) was −0.069, the “LOAC, number” value (background ICS/LABA dose High) was 11 and the OR vs. placebo (background ICS/LABA dose High) was 0.737. The “RD vs. Placebo” value (background ICS/LABA dose High) was −0.075, the “LOAC, number” value [2] was 1 and the “RD vs. Placebo” value [2] was −0.467. For the same compound, the OR vs. placebo (baseline ACQ-5 >2) was 0.475, the “LOAC, number” value (baseline ACQ-5 ≤2) was 7 and the OR vs. placebo (baseline ACQ-5 ≤2) was 0.651. For the same compound, the “RD vs. Placebo” value (baseline ACQ-5 ≤2) was −0.098, the “LOAC, number” value (baseline FeNO level 1 <25 ppb) was 3 and the OR vs. placebo (baseline FeNO level 1 <25 ppb) was 0.261. The “RD vs. Placebo” value (baseline FeNO level 1 <25 ppb) was −0.227, the “LOAC, number” value (baseline FeNO level 1 ≥25 ppb) was 9 and the OR vs. placebo (baseline FeNO level 1 ≥25 ppb) was 0.946. The “RD vs. Placebo” value (baseline FeNO level 1 ≥25 ppb) was −0.007, the “LOAC, number” value (baseline FeNO level 2 <35 ppb) was 8 and the OR vs. placebo (baseline FeNO level 2 <35 ppb) was 0.448. For the same compound, the “RD vs. Placebo” value (baseline FeNO level 2 <35 ppb) was −0.198, the “LOAC, number” value (baseline FeNO level 2 ≥35 ppb) was 4 and the OR vs. placebo (baseline FeNO level 2 ≥35 ppb) was 0.800. The “RD vs. Placebo” value (baseline FeNO level 2 ≥35 ppb) was −0.053, the “LOAC, number” value [3] was 4 and the OR vs. placebo [3] was 0.205. For the same compound, the “RD vs. Placebo” value [3] was −0.365, the “LOAC, number” value [4] was 8 and the OR vs. placebo [4] was 1.633. The “RD vs. Placebo” value [4] was 0.122, the “LOAC, number” value (baseline IgE <100 IU/mL) was 2 and the OR vs. placebo (baseline IgE <100 IU/mL) was 0.412. For the same compound, the “RD vs. Placebo” value (baseline IgE <100 IU/mL) was −0.220, the “LOAC, number” value [5] was 6 and the OR vs. placebo [5] was 0.744. For the same compound, the “RD vs. Placebo” value [5] was −0.053, the “LOAC, number” value (baseline IgE ≥100 IU/mL) was 10 and the OR vs. placebo (baseline IgE ≥100 IU/mL) was 0.652. For the same compound, the “RD vs. Placebo” value (baseline IgE ≥100 IU/mL) was −0.092, the “LOAC, number” value [6] was 6 and the OR vs. placebo [6] was 0.604. For the same compound, the “RD vs. Placebo” value [6] was −0.124, the “LOAC, number” value [7] was 7 and the OR vs. placebo [7] was 0.700. For the same compound, the “RD vs. Placebo” value [7] was −0.088, the OR vs. placebo [8] was 0.556 and the “RD vs. Placebo” value [8] was −0.143. The “LOAC, number” value [9] was 7, the OR vs. placebo [9] was 0.700 and the “RD vs. Placebo” value [9] was −0.088. The OR vs. placebo [10] was 0.556, the “RD vs. Placebo” value [10] was −0.143 and the “LOAC, number” value [11] was 2. For the same compound, the OR vs. placebo [11] was 0.527, the “RD vs. Placebo” value [11] was −0.135 and the “LOAC, number” value [12] was 10. For the same compound, the OR vs. placebo [12] was 0.737, the “RD vs. Placebo” value [12] was −0.077 and the OR vs. placebo [13] was 0.231. For the same compound, the “RD vs. Placebo” value [13] was −0.197, the “LOAC, number” value [14] was 7 and the OR vs. placebo [14] was 0.951. For the same compound, the “RD vs. Placebo” value [14] was −0.013, the “LOAC, number” value (low EOS (<0.15) and low FeNO (<25)) was 0 and the “LOAC, number” value (smoking history Former) was 3. For the same compound, the OR vs. placebo (smoking history Former) was 3.000, the “RD vs. Placebo” value (smoking history Former) was 0.250 and the “LOAC, number” value (smoking history Never) was 9. The OR vs. placebo (smoking history Never) was 0.474, the “RD vs. Placebo” value (smoking history Never) was −0.179 and the “LOAC incidence, number of participants” value [15] was 8. The “LOAC incidence, percentage” value [15] was “(18.6)”, the “LOAC OR vs. placebo” value (400 mg TID cohort, Eastern Europe, 95% CI (0.187, 1.368)) was 0.506 and the “LOAC incidence, number of participants” value [16] was 4. The “LOAC incidence, percentage” value [16] was “(21.1)”, the “LOAC OR vs. placebo” value (400 mg TID cohort, Latin America, 95% CI (0.166, 3.357)) was 0.747 and the “LOAC RD vs. placebo” value (400 mg TID cohort, Latin America, 95% CI (−0.322, 0.217)) was −0.053.
